Assay results: patent US20230255943A1, “MMP-9 AND MMP-12 INHIBITION FOR TREATING SPINAL CORD INJURY OR RELATED INJURY TO NEUROLOGICAL TISSUE” (The University of Birmingham, priority 2020, published 2023)

Key:
[1] = test system: mice with DC crush injury; test: Spinal cord water content (oedema) after DC crush injury in mice; assay type: in vivo, mouse; details: IP, twice daily
[2] = test system: other members of the enzyme family; test: Selectivity to other members of the enzyme family; assay type: biochemical, human; details: relative to MMP-9 and MMP-12
MMP-9 = molecular target: T1, MMP-9 (Mus musculus, UniProt P41245); test: MMP-9 enzyme activity after SCI in mice (SensoLyte 520 fluorimetric assay); assay type: in vivo; details: for suppression of MMP-9 activity in CSF / suppression of MMP-9 activity in serum / suppression of MMP-9 activity in spinal cord tissues: DC injury; for suppression of MMP-9 activity in spinal cord tissues: lowest most effective dose; for lowest most effective dose: suppression of MMP-9 and MMP-12 activity
T1 construct: from tissue; host or cells: mouse spinal cord lesion site homogenate, serum and CSF
T1 sequence (P41245 108-730): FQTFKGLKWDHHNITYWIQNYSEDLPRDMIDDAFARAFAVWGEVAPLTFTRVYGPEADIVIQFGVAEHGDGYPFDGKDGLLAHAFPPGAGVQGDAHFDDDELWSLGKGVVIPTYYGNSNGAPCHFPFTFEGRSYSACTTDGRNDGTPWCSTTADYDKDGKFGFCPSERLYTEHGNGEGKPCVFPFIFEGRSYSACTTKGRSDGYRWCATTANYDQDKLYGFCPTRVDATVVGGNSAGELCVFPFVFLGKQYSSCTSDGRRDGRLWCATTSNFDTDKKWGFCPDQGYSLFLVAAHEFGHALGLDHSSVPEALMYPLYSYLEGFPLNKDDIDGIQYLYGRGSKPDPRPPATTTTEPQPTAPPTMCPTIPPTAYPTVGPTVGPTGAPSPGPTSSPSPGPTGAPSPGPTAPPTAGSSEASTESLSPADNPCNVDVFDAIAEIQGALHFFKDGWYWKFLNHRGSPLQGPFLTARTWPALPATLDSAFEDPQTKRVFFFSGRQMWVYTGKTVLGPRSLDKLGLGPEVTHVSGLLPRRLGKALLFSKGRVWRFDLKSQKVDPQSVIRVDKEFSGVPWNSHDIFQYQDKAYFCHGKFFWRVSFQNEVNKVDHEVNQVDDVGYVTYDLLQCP
Experimental: (§1) For oral delivery of AZD1236, n=6 adult male C57BL6 mice/group (Charles River, Margate, UK) were randomly allocated to either: (1), Sham (control; partial laminectomy but no DC crush injury); (2), DC crush injury+vehicle (partial laminectomy followed by DC crush injury and injection of vehicle); (3), DC crush injury+100 mg/kg AZD1236; (4), DC crush injury+200 mg/kg AZD1236; and (5), DC crush injury+300 mg/kg AZD1236. For intrathecal (it) delivery of AZD1236, adult male C57BL6 mice (25-30 g) (Charles River, Margate, UK) were randomly allocated to either: (1), Sham (control; partial laminectomy but no DC crush injury); (2), DC crush injury+vehicle (partial laminectomy followed by DC crush injury and injection of vehicle); (3), DC crush injury+2.5 mg/kg AZD1236; (4), DC crush injury+5 mg/kg AZD1236; and (5), DC crush injury+10 mg/kg AZD1236. For intrathecal delivery an indwelling atlanto-occipital intrathecal catheter was inserted into the intrathecal space, as described previously (F. A. Oladosu, B. P. Ciszek, S. C. O'Buckley, A. G. Nackley, Novel intrathecal and subcutaneous catheter delivery systems in the mouse. J Neurosci Methods 264, 119-128 (2016)). Briefly, with mice in the sternal recumbency a small incision was made at the nape of the neck followed by detachment of the muscles on either side of the external occipital crest to expose the A-O membrane. The membrane was incised and a 6 cm Alzet mouse intrathecal catheter (Alzet, Cupertino, Calif., USA) and polyurethane segments were gently guided 2.5 cm into the intrathecal space. The catheter was secured using 4-0 silk sutures (Oasis Medical, IL) and the exposed end of the catheter was sealed off with a stainless-steel plug and affixed to the upper back. Animals were injected immediately with vehicle or AZD1236 followed by a 10 μl PBS catheter flush. Injections were repeated every twice daily for the first 3 days after injury and drugs and vehicle reagents were delivered over 1 min time period using a Hamilton microlitre syringe (Hamilton Co, USA). Where specified intact animals with no surgical procedures were also used. All lesions were administered under 5% isofluorane induced inhalation anaesthesia, with 1.51/min O2. Pre- and post-injury analgesia was also provided.
(§2) DC crush injury was administered bilaterally at the T8 vertebral level as described previously (S. Surey, M. Berry, A. Logan, R. Bicknell, Z. Ahmed, Differential cavitation, angiogenesis and wound-healing responses in injured mouse and rat spinal cords. Neuroscience 275, 62-80 (2014); M. L. Read, S. Mir, R. Spice, R. J. Seabright, E. L. Suggate, Z. Ahmed, M. Berry, A. Logan, Profiling RNA interference (RNAi)-mediated toxicity in neural cultures for effective short interfering RNA design. J Gene Med 11, 523-534 (2009)). Briefly, calibrated watchmaker's forceps were separated by 0.5 mm and inserted through the dorsal cord meninges to a depth of 0.45 mm in mice and separated by 1 mm and inserted through the dorsal cord meninges to a depth of 1.0 mm in rats, and the DC were crushed for 3 seconds. AZD1236 or vehicle was administered twice daily by oral gavage or intrathecally, either immediately for the first 3 days or 24 hours after injury and treating twice daily until day 4 (i.e. 3 days of AZD1236 dosing). All experiments were performed with n=6 mice/group and repeated on at least 2-3 independent occasions (total=12-18 animals/group/test).
(§3) CC SCI was administered at the T7-T8 vertebral level after exposure of T6-T9 by laminectomy. […]

MMP-12 = molecular target: T2, MMP-12 (Mus musculus, UniProt P34960); test: MMP-12 enzyme activity after SCI in mice (SensoLyte 520 fluorimetric assay); assay type: in vivo; details: for suppression of MMP-12 activity in CSF / suppression of MMP-12 activity in serum / suppression of MMP-12 activity in spinal cord tissues: DC injury; for suppression of MMP-12 activity in spinal cord tissues: lowest most effective dose
T2 construct: from tissue; host or cells: mouse spinal cord lesion site homogenate, serum and CSF
T2 sequence (P34960 110-473): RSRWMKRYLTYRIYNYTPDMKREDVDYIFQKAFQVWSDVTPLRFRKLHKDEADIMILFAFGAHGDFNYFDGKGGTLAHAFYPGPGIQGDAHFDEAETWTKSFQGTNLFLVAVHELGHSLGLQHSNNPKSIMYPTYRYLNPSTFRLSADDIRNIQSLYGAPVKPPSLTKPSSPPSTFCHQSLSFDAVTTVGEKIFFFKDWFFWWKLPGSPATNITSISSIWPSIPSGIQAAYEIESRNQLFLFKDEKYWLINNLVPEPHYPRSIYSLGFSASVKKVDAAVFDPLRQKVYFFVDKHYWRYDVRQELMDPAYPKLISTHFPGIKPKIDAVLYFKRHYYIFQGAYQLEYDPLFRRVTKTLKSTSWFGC
Experimental: as §1, §2, §3

[3] = injury site, oral dosing withdrawn after 3 d
[4] = optimal doses, 24 h delay vs immediate

## CCN(CC)Cc1cc(C)c(N(Cc2ccccc2)S(=O)(=O)c2ccc(OC)cc2)c(C(=O)NO)c1 [MMP-9 Inhibitor I, reference compound]
[1]
  SCI-induced oedema with tool inhibitors singly or in combination (FIG. 3D): suboptimal therapeutic benefits

## C[C@]1(CS(=O)(=O)N2CC=C(C#Cc3cnc(C4CC4)nc3)CC2)NC(=O)NC1=O [AZD1236]
[2]
  selectivity to other members of the enzyme family: > 350 fold
MMP-9; intrathecal delivery
  suppression of MMP-9 activity in CSF: 88±2%
  suppression of MMP-9 activity in serum: 71±2%
MMP-9; intrathecal
  suppression of MMP-9 activity in spinal cord tissues: 87±5%
MMP-9; oral delivery, 200 mg/kg
  suppression of MMP-9 activity in CSF: 74±2%
  suppression of MMP-9 activity in serum: 90±2%
MMP-9; oral
  suppression of MMP-9 activity in spinal cord tissues: 88±4%
MMP-9; [3]
  time for MMP-9 activity to return to DC+Vehicle injury levels after withdrawal: 4 days
MMP-9; intrathecal injection
  lowest most effective dose: 5 mg/kg
MMP-9; [4]
  MMP-9 activity, 24-h delayed treatment: equally as effective as immediate delivery
MMP-9; oral administration
  lowest most effective dose: 200 mg/kg
MMP-12; intrathecal delivery
  suppression of MMP-12 activity in CSF: 90±1%
  suppression of MMP-12 activity in serum: 71±1%
MMP-12; intrathecal
  suppression of MMP-12 activity in spinal cord tissues: 86±4%
MMP-12; oral delivery, 200 mg/kg
  suppression of MMP-12 activity in CSF: 69±3%
  suppression of MMP-12 activity in serum: 90±3%
MMP-12; oral
  suppression of MMP-12 activity in spinal cord tissues: 85±3%
MMP-12; [3]
  time for MMP-12 activity to return to DC+Vehicle injury levels after withdrawal: 5 days
MMP-12; [4]
  MMP-12 activity, 24-h delayed treatment: equally as effective as immediate delivery
